From patent publication EP0007206A1, “Phenethanolamines, their formulations, preparation and use” (ELI LILLY AND COMPANY, priority 1978, dated 1980)
Structures can show the parent of a compound that is named as a salt.

Columns and labels:
[1] = test system: Chinese hamster ovary cells; assay: mitotic arrest assay (mitotic inhibitory activity); type: cell-based; conditions: 20.0 mcg/ml, five hours contact
Description: One such test, for example, was a determination of mitotic inhibitory activity. The compounds of this invention have the ability to arrest cultured cells at the mitotic phase (metaphase) of the cell cycle without apparent effect on other stages of the cell cycle. Such mitotic inhibitory activity is an indication that the compounds may have a beneficial effect on the biological activities of antineoplastic drugs. […] The compounds of the invention were administered at 20 mcg./ml. and the number of cells arrested at the mitotic phase out of 1000 cultured cells were counted and compared to the controls which underwent mitotic arrest without a drug present. Two evaluations were carried out for each test compound. The results reported are the percent of cells held at mitosis after five hours contact with the compound of this invention.

[2] = test system: adenocarcinoma (CA 755 tumor); assay: combination chemotherapy with vindesine, implanted adenocarcinoma (Table 5); type: in vivo, mice; conditions: vindesine 0.6 mg./kg. i.p. days 1, 5, 9, 13, B 7.5 mg./kg. i.p. twice daily first 15 days
Description: (§1) In a typical experiment, laboratory mice were infected by a subcutaneous implantation of a tumor tissue in the axillary region of the body. The implantations were accomplished by means of a trocar. Initial tumor size in each animal generally was about 2 square millimeters. Tumor size was then measured periodically as length and width in mm. Typical tumor systems implanted included adenocarcinoma 755, an Aly Fast strain of bronchiogenic carcinoma, and mecca lymphosarcoma. Oncolytic agents utilized in the tests to determine the potentiating effects of the compounds of the invention.include cytoxan, 5-fluorouracil, vindesine, methotrexate and 6-mercaptopurine. Twenty or thirty infected animals generally were selected as controls and received placebo. Ten infected animals normally were selected to receive a known oncolytic agent. Another ten infected animals were administered the known oncolytic agent in addition to a compound of this invention.
The animals receiving combination chemotherapy were administered vindesine intraperitoneally according to the above-indicated dosage regimen, and N-(2-phenyl-2-hydroxyethyl)-1,1-dimethyl-3-(4-aminocarbonylphenyl)propylaminium chloride was administered intraperitoneally at the rate of 7.5 mg./kg. twice daily for the first 15 days of the test. Under column I of each of the indicated days of measurement is given the average tumor size in square millimeters for each test group. Column II under each of the indicated days of measurement provides the number of tumor free animals out of those still living on that particular day in each test group. […] In contrast, all of the control animals and those receiving vindesine alone had died by day 40, and none were tumor free after the thirteenth day of the test.

755 adenocarcinoma = assay: combination chemotherapy with cytoxan at varying doses, implanted 755 adenocarcinoma (Table 8); type: in vivo
Description: as §1
A similar study was carried out with cytoxan at varying doses and the combination of cytoxan and N-(2-phenyl-2-hydroxyethyl)-l,l-dimethyl-3-(4-aminocarbonylphenyl)propylaminium chloride. A group of ten animals infected with the 755 adenocarcinoma were given cytoxan intraperitoneally at the rate of 25 mg./kg. once per day on days 5, 9 and 13 of the test. Another group of infected animals received cytoxan at 12.5 mg./kg. once per day on days 5, 9 and 13. A third group of infected animals received the combination of cytoxan, given i.p. at 12.5 mg./kg. on days 5, 9 and 13, and the compound of this invention (compound B) given subcutaneously twice daily on days 5 through 14 at the dose of 7.5 mg./kg. As indicated by the data, all of the control animals and those receiving the oncolytic agent alone were dead after 73 days. In contrast, six of the ten animals which received combination chemotherapy were still living after 73 days of the test, and all of those still living were tumor free.

[3] = test system: aly fast tumor strain of bronchiogenic carcinoma of the lung; assay: combination chemotherapy with cytoxan, implanted bronchiogenic carcinoma (Table 4); type: in vivo, hamsters; conditions: cytoxan 10 mg./kg. i.p. once daily, A 10 mg./kg. s.c. twice daily
Description: as §1
In a similar test, hamsters were infected with an aly fast tumor strain of bronchiogenic carcinoma of the lung. Cytoxan was administered to one group of infected animals at an intraperitoneal dose of 10 mg./kg. once daily. A compound of this invention, N-(2-phenyl-2-hydroxyethyl)-l,l-dimethyl-3-(4-hydroxyphenyl)propylaminium bromide (designated in Table 4 as A), caused a significant synergistic effect when co-administered with cytoxan. Cytoxan was administered i.p. once daily at 10 mg./kg. to the animals receiving the combination chemotherapy, and compound A was administered subcutaneously at the rate of 10 mg./kg. twice daily. It should be noted that the average tumor size for the animals receiving the combination of cytoxan and N-(2-phenyl-2-hydroxyethyl)-l,l-dimethyl-3-(4-hydroxyphenyl)-propylaminium bromide was only 20 square millimeters after the nineteenth day of treatment, while the average tumor size for the group receiving cytoxan was about the same as that for the animals receiving placebo, namely about 1340 square millimeters.

[4] = Day 5, cytoxan 12.5 mg./kg. i.p. days 5, 9, 13, B 7.5 mg./kg. s.c. twice daily days 5 through 14
[5] = Day 5, cytoxan 25 mg./kg. i.p. once per day on days 5, 9, 13
[6] = Day 12, cytoxan 12.5 mg./kg. i.p. days 5, 9, 13, B 7.5 mg./kg. s.c. twice daily days 5 through 14
[7] = Day 12, cytoxan 25 mg./kg. i.p. once per day on days 5, 9, 13
[8] = Day 17, cytoxan 12.5 mg./kg. i.p. days 5, 9, 13, B 7.5 mg./kg. s.c. twice daily days 5 through 14
[9] = Day 17, cytoxan 25 mg./kg. i.p. once per day on days 5, 9, 13
[10] = Day 23, cytoxan 12.5 mg./kg. i.p. days 5, 9, 13, B 7.5 mg./kg. s.c. twice daily days 5 through 14
[11] = Day 23, cytoxan 25 mg./kg. i.p. once per day on days 5, 9, 13
[12] = Day 29, cytoxan 12.5 mg./kg. i.p. days 5, 9, 13, B 7.5 mg./kg. s.c. twice daily days 5 through 14
[13] = Day 29, cytoxan 25 mg./kg. i.p. once per day on days 5, 9, 13

SMILES: CC(C)(CCc1ccc(O)cc1)NCC(O)c1ccccc1 (racemic) [N-(2-Phenyl-2-hydroxyethyl)-l,l-dimethyl-3-(4-hydroxyphenyl)propylamine]
- Mitotic Index (percent of cells held at mitosis) ([1]; first of two evaluations): 36%
- Mitotic Index (percent of cells held at mitosis) ([1]; second of two evaluations): 33%

SMILES: CN(C)C(=O)c1ccc(CCC(C)(C)NCC(O)c2ccccc2)cc1 (racemic) [N-(2-phenyl-2-hydroxyethyl)-1,1-dimethyl-3-(4-dimethylaminocarbonylphenyl)propylaminium oxalate]
- Mitotic Index (percent of cells held at mitosis) ([1]; first of two evaluations): 40%
- Mitotic Index (percent of cells held at mitosis) ([1]; second of two evaluations): 46%

SMILES: CC(C)(CCc1ccc(C(N)=O)cc1)NCC(O)c1ccccc1 (centres unmarked) [N-(2-Phenyl-2-hydroxyethyl)-1,1-dimethyl-3-(4-aminocarbonylphenyl)propylamine]
- Mitotic Index (percent of cells held at mitosis) ([1]; first of two evaluations): 57%
- Mitotic Index (percent of cells held at mitosis) ([1]; second of two evaluations): 45%

SMILES: CNC(=O)c1ccc(CCC(C)(C)NCC(O)c2ccccc2)cc1 (racemic) [N-(2-phenyl-2-hydroxyethyl)-l,l-dimethyl-3-(4-methylaminocarbonylphenyl)propylaminium chloride]
- Mitotic Index (percent of cells held at mitosis) ([1]; first of two evaluations): 36%
- Mitotic Index (percent of cells held at mitosis) ([1]; second of two evaluations): 38%

SMILES: CCC1(O)CC2CN(CCc3c([nH]c4ccccc34)C(C(=O)OC)(c3cc4c(cc3OC)N(C)C3C(O)(C(N)=O)C(O)C5(CC)C=CCN6CCC43C65)C2)C1 (centres unmarked) [VDS, vindesine]
- number of tumor free animals out of those still living ([2]; Day 0): 0/10
- average tumor size ([2]; Day 8): 35 square millimeters
- number of tumor free animals out of those still living ([2]; Day 8): 3/9
- average tumor size ([2]; Day 13): 170 square millimeters
- number of tumor free animals out of those still living ([2]; Day 13): 0/8
- average tumor size ([2]; Day 19): 300 square millimeters
- number of tumor free animals out of those still living ([2]; Day 19): 0/8
- average tumor size ([2]; Day 26): 620 square millimeters
- number of tumor free animals out of those still living ([2]; Day 26): 0/6
- number of tumor free animals out of those still living ([2]; Day 40): 0/0

SMILES: O=P1(N(CCCl)CCCl)NCCCO1 (centres unmarked) [Cytoxan, cytoxan]
- number of tumor free animals out of those still living (755 adenocarcinoma; Day 0, cytoxan 12.5 mg./kg. i.p. days 5, 9, 13, B 7.5 mg./kg. s.c. twice daily days 5 through 14): 0/10
- number of tumor free animals out of those still living (755 adenocarcinoma; Day 0, cytoxan 25 mg./kg. i.p. once per day on days 5, 9, 13): 0/10
- average tumor size (755 adenocarcinoma; [4]): 130
- number of tumor free animals out of those still living (755 adenocarcinoma; [4]): 0/10
- average tumor size (755 adenocarcinoma; [5]): 80
- number of tumor free animals out of those still living (755 adenocarcinoma; [5]): 0/10
- average tumor size (755 adenocarcinoma; [6]): 190
- number of tumor free animals out of those still living (755 adenocarcinoma; [6]): 0/10
- average tumor size (755 adenocarcinoma; [7]): 60
- number of tumor free animals out of those still living (755 adenocarcinoma; [7]): 1/10
- average tumor size (755 adenocarcinoma; [8]): 300
- number of tumor free animals out of those still living (755 adenocarcinoma; [8]): 0/10
- average tumor size (755 adenocarcinoma; [9]): 60
- number of tumor free animals out of those still living (755 adenocarcinoma; [9]): 4/10
- average tumor size (755 adenocarcinoma; [10]): 600
- number of tumor free animals out of those still living (755 adenocarcinoma; [10]): 1/9
- average tumor size (755 adenocarcinoma; [11]): 200
- number of tumor free animals out of those still living (755 adenocarcinoma; [11]): 2/9
- average tumor size (755 adenocarcinoma; [12]): 800
- number of tumor free animals out of those still living (755 adenocarcinoma; [12]): 0/4
- average tumor size (755 adenocarcinoma; [13]): 570
- number of tumor free animals out of those still living (755 adenocarcinoma; [13]): 0/4
- number of tumor free animals out of those still living (755 adenocarcinoma; Day 73, cytoxan 12.5 mg./kg. i.p. days 5, 9, 13, B 7.5 mg./kg. s.c. twice daily days 5 through 14): 0/0
- number of tumor free animals out of those still living (755 adenocarcinoma; Day 73, cytoxan 25 mg./kg. i.p. once per day on days 5, 9, 13): 0/0
- number of surviving animals out of test group ([3]; Day 0): 10/10
- average tumor size ([3]; Day 8): 560 square millimeters
- number of surviving animals out of test group ([3]; Day 8): 10/10
- average tumor size ([3]; Day 13): 950 square millimeters
- number of surviving animals out of test group ([3]; Day 13): 9/10
- average tumor size ([3]; Day 19): 1340 square millimeters
- number of surviving animals out of test group ([3]; Day 19): 6/10
- average tumor size ([3]; Day 19, listed as cytoxan): about 1340 square millimeters
